This is an account of results in article PMC10052957, “Exploring Synthetic Dihydrobenzofuran and Benzofuran Neolignans as Antiprotozoal Agents against Trypanosoma cruzi” (Pharmaceutics, 2023).

Converted amounts (≈) assume the structure as drawn. Like-named read-outs stand apart in the source and are kept apart here.

The subject of data set [1] is epimastigote forms of the T. cruzi Y strain. Set-up: method as in PMID 17015964. The settings on record: cited from earlier work.
Data set [2] deals with epimastigote forms of the T. cruzi H6 strain. Further details: method as in PMID 12230115. Conditions: cited from earlier work.
The nature of data set [3]: Cytotoxicity in LLC-MK2 cells (trypan blue). The settings on record: rhesus monkey (Macaca mulatta), 95% confidence limits in parentheses. The format is cell-based, Monkey (Macaca mulata). Here is the method:
To assess the cytotoxic activity of DBNs 1–4 using trypan blue, LLC-MK2 cells were sown at a concentration of 2 × 10^5 cells per well in 96-well plates. DBNs 1, 2, 3, 4, and BZN previously dissolved with DMSO were added to achieve the concentration range of 6.25-100 µM and incubated at 37 °C in a 5% CO2 humidified incubator (Sanyo) for 72 h. Next, the cells were trypsinized for 30 s, and then 10 μL of the supernatant was stained with 10 μL of a 0.4% trypan blue solution (Synth, São Paulo, Brazil). Cell counting was performed using transmitted light microscopy (Nikon) with 40X magnification using a Neubauer’s chamber (Global Glass), with a total of 100 cells being counted, where cellsstained blue were considered non-viable. Cell counting was used to obtain the CC50.

For data set [4], the system named is amastigotes forms of the T. cruzi Y strain. The data set can be described thus: In vitro antitrypanosomal activity against amastigotes of moderately drug-resistant T. cruzi Y strain (Giemsa counting in LLC-MK2 cells). The format is cell-based, Trypanosoma cruzi. Conditions: for IC50: Trypanosoma cruzi, LLC-MK2, amastigotes, after 72 h, 95% confidence limits in parentheses; for SI Y Strain: CC50 of LLC-MK2 divided by IC50 at 72 h.

In a further data set the test system is Erythrocytes. Nature of the data set: Hemolytic activity on defibrinated sheep blood. Format: cell-based. Conditions: sheep red blood cells, 30 min, 37 °C. Here is the method: The hemolytic activity was determined as described by Kaplum and co-workers with adaptations. Defibrinated sheep blood was diluted in 0.9% saline solution. Neolignans 1, 2, 3, 4, and BZN were solubilized in DMSO (Sigma-Aldrich, St. Louis, MO, USA) and added to microtubes containing red blood cells in concentrations from 6.25 to 100 µM. […] Distilled water was used as a positive control, and a 0.9% saline solution with 0.1% DMSO was used as the negative control.

A short description of data set [5]: Cytotoxicity in murine spleen cells (propidium iodide, flow cytometry). Conditions: Swiss, mouse, 95% confidence limits in parentheses. Format: cell-based, Swiss mice (Mus musculus). Here is the method:
The cytotoxicity of DBNs 1–4 was determined using the propidium iodide and trypan blue methodologies. To assess the cytotoxic activity using propidium iodide, mice spleen cells were sown at a concentration of 6.5 × 10^6 cells/mL in a 24-well plate. DBNs 1, 2, 3, 4, and BZN were added at concentrations ranging from 1.95 to 250 µM and incubated for 24 h at 37 °C in a 5% CO2 humidified incubator (Sanyo). After the incubation period, the cells were harvested and incubated with a 10 µg/mL propidium iodide solution (Sigma-Aldrich, St. Louis, MO, USA). The cell acquisition was performed within 15 min using a flow cytometer (BD-FACSCanto™II; BD Biosciences, BR), and cell counting was used to obtain the CC50 (50% cytotoxic concentration).
For orientation: A flow cytometer gives signals particle by particle.

The subject of data set [6] is 60 humor tumor cell lines. Further details: method as in PMID 10639289. The settings on record: molar drug concentration required for 50% growth inhibition; cited from earlier work.
Data set [7] relates to trypomastigote forms of the T. cruzi Y strain. Further details: method as in PMID 21570099. Conditions: cited from earlier work.
The subject of data set [8] is Leishmania donovani axenic amastigotes. Set-up: method as in PMID 15653333. Conditions: cited from earlier work.
Data set [9] deals with Leishmania donovani infected macrophage. Further details: method as in PMID 15653333. Conditions: cited from earlier work.
Data set [10] concerns trypomastigote forms of Trypanosoma brucei rhodiense. Further details: method as in PMID 15653333. The settings on record: cited from earlier work.
The test system of data set [11] is chloroquine-resistant Plasmodium falciparum (strain K1). Set-up: method as in PMID 15653333. Conditions: cited from earlier work.
[12] abbreviates: value in parentheses, read-out: IC50.

Consider eupomatenoid-5, for which the IC50 in [1] was 7.0 µg/mL; in [1] (setting [12]), 23.8 µM.

On to `C/C=C/c1ccc2c(c1)[C@@H](C)[C@H](c1ccc(O)cc1)O2` [conocarpan], for which the IC50 in data set [1] was 8.0 µg/mL; in data set [1] (setting [12]) it was 30 µM.

Take `C/C=C/c1cc(OC)c2oc(-c3ccc(O)c(OC)c3)c(C)c2c1` [eupomatenoid-7]: the IC50 in [2] was 77 µM.

`COC(=O)CCc1ccc2c(c1)C(C(=O)OC)C(c1ccc(O)cc1)O2` (stereo not drawn) [Compound 12] showed a melting point of 108 to 110 °C.

With `COC(=O)C=Cc1cc(O)c2c(c1)C(C(=O)OC)C(c1ccc(O)c(O)c1)O2` (stereo not drawn) [Compound 3], the CC50 at 72 h in data set [3] is 30.8 µM. Also, in data set [4], the IC50 was above 25 µM. In the data set on Erythrocytes, the “CH50 Erythrocytes” value was above 100 µM. For the same molecule, the CC50 at 24 h in data set [5] is below 1.95 µM. Moreover, the GI50 in data set [6] was 0.3 µM.

As for (±)-licarin, the IC50 in data set [7] is 127 µM.

For `COC(=O)/C=C/c1ccc2oc(-c3ccc(O)cc3)c(C(=O)OC)c2c1` [Compound 7], the melting point lay in the range of 204 to 206 °C.

As to `O=C(Cn1ccnc1[N+](=O)[O-])NCc1ccccc1` [BZN, benznidazole, reference compound], in [3], the CC50 at 72 h was determined as 43.2 µM. Also, in [4], the “SI Y Strain” value is listed as 12.13 and the IC50 amounted to 3.56 µM. Also, the CC50 at 24 h in [5] was determined as 1.81 µM.

In the case of `C/C=C/c1cc(OC)c2c(c1)[C@H](C)[C@@H](c1ccc(O)c(OC)c1)O2` [licarin A], the IC50 in data set [2] is 123 µM.

Take `C/C=C/c1cc(OC)c2c(c1)[C@H](C)[C@@H](c1ccc(O)c(OC)c1)O2` [(-)-licarin]: the IC50 in [7] is 23.5 µM.

For the molecule `COC(=O)C=Cc1cc(OC)c2c(c1)C(C(=O)OC)C(c1ccc(OC(=O)c3ccccc3)c(OC)c1)O2` (stereo not drawn) [Compound 11], the melting point is 109 to 111 °C.

With `CCCCOC(=O)C=Cc1cc(O)c2c(c1)C(C(=O)OCCCC)C(c1ccc(O)c(O)c1)O2` (stereo not drawn), the IC50 in data set [8] is reported as 0.12 µg/mL (≈ 0.255 µM); in data set [9], 0.19 µg/mL (≈ 0.404 µM); in [10], 0.29 µg/mL (≈ 0.616 µM); in [11], 0.43 µg/mL (≈ 0.914 µM).

With `COC(=O)C=Cc1cc(OC)c2c(c1)C(C(=O)OC)C(c1ccc(O)c(OC)c1)O2` (stereo not drawn) [Compound 2], the CC50 at 72 h in [3] came out at 67.6 µM. In addition, the IC50 in [4] was above 25 µM. Further, the “CH50 Erythrocytes” value in the data set on Erythrocytes was above 100 µM. For the same molecule, the CC50 at 24 h in [5] turned out to be 34.2 µM.

As for `COC(=O)C=Cc1ccc2c(c1)C(C(=O)OC)C(c1ccc(O)cc1)O2` (mixture of isomers) [Compound 1, (±)-trans-dehydrodicoumarate dimethyl ester], in data set [3], the CC50 at 72 h turned out to be 70.9 µM. For the same molecule, in data set [4], the “SI Y Strain” value is on record as 21.73 and the IC50 amounted to 3.26 µM. Further, in the data set on Erythrocytes, the “CH50 Erythrocytes” value is recorded as above 100 µM. In addition, the CC50 at 24 h in data set [5] turned out to be 49.9 µM.

Regarding `OCCCc1ccc2c(c1)C(CO)C(c1ccc(O)cc1)O2` (stereo not drawn) [Compound 14], the melting point was in the range of 120 to 121 °C.

`COC(=O)C=Cc1ccc2c(c1)C(C(=O)OC)C(c1ccc(OC(C)=O)cc1)O2` (stereo not drawn) [Compound 4] had a melting point of 103 to 105 °C. Moreover, the CC50 at 72 h in data set [3] was determined as 67.5 µM. Further, the IC50 in data set [4] was above 25 µM. Moreover, in the data set with Erythrocytes, the “CH50 Erythrocytes” value was above 100 µM. Besides, the CC50 at 24 h in [5] worked out at 51.1 µM.

Take `C/C=C/c1ccc2oc(-c3ccc(O)cc3)c(C)c2c1` [eupomatenoid-6]: the IC50 in data set [1] is 7.5 µg/mL; in [1] (setting [12]), 28.4 µM.

As to `OCC=Cc1ccc2c(c1)C(CO)C(c1ccc(O)cc1)O2` (stereo not drawn) [Compound 9], the melting point was 139 to 140 °C.

Regarding Eupatemoid-3, the values for the IC50 in [1] and in data set [1] (setting [12]) were 26.3 µg/mL and 90.9 µM, respectively.

As for `C/C=C/c1cc(OC)c2c(c1)[C@@H](C)[C@H](c1ccc(O)c(OC)c1)O2` [(+)-licarin], the IC50 in data set [7] is 87.7 µM.

One may read the IC50 as the concentration that inhibits the measured activity by half. Usually melting point stands for the temperature of the solid-liquid transition. Broadly, the CC50 is the concentration at which the toxic effect on the cells reaches its halfway point. Usually GI50 stands for the concentration that inhibits growth by half.
